Laboratory results reported in patent US11542524B2, “Elimination of proliferating cells from stem cell-derived grafts” (priority 2017, dated 2023).
“Also recorded” adds a separate entry of the source.

What was measured:
[1] = system: TK-PSC (HS415 pluripotent stem cells expressing HSV-TK under the Ki67 promoter); assay: Calcein cell viability assay, ganciclovir on TK-PSC; format: cell-based, human
Protocol: (§1) Cell Proliferation Measurement by Calcein Assay:
(§2) Cells were plated onto a 96 wells pre-coated with polyornothine+ECM (1/50). Respectively 1000 cells for pluripotent stem cells, 5000 cells for early NPC and 30000 cells for late NPC. Ganciclovir (Cemevene diluted in PBS, Roche) treatment was added the day after cell plating for PSC, 3 days later for early NPC and one week later for late NPC. Calcein (2 μM) was added for different time course of ganciclovir treatment (24H to 96H). Cell survival was measured by calcein integration after 24h of incubation in a 37° C. incubator.

[2] = system: regular PSCs (not transduced with the TK construct); assay: Calcein cell viability assay, ganciclovir on control PSC; format: cell-based, human; conditions: concentrations of 40 μM
Protocol: as §1, §2

[3] = system: control neurons; assay: Calcein cell viability assay, ganciclovir on control neurons; format: cell-based, human; conditions: concentrations up to 40 μM
Protocol: as §1, §2

[4] = system: TK-NPCs; assay: Calcein cell viability assay, ganciclovir time course on TK-NPC; format: cell-based, human; conditions: 40 μM
Protocol: as §1, §2

[5] = system: TK-PSC transplanted into the striatum; assay: Transplantation of TK-PSC into striatum and ganciclovir treatment (teratoma formation); format: in vivo, NOD/SCID mice
Protocol: (§3) FIGS. 3A-3C: Schedule of cell transplantation and ganciclovir treatment. Different transplantation and ganciclovir treatment protocols were used. (A) Schematic representation of the differentiation protocol towards DA neurons. Pluripotent stem cells were cultured as neurospheres for 1 week for midbrain orientation phase, followed by a 2 or 3 week-maturation phase. (B) Transplantation of undifferentiated pluripotent stem cells with early or late ganciclovir treatment. Early treatment: undifferentiated pluripotent stem cells were transplanted and ganciclovir (or PBS control) was applied by daily intra-peritoneal injection from day 4 to day 19 post-transplantation. Late treatment: undifferentiated pluripotent stem cells were transplanted and ganciclovir (or PBS control) was applied by daily intra-peritoneal injection from day 30 to day 45 post-transplantation. (C) Transplantation of 2 or 3 week NPC: NPC containing—neurospheres were dissociated and transplanted into mice striatum. Ganciclovir (or PBS control) treatment was given from day 4 to day 19 post-transplantation. For all protocols, animals were sacrificed 1 month after termination of ganciclovir treatment.
(§4) Stereotaxic engraftment and ganciclovir treatment:
(§5) Undifferentiated pluripotent stem cells (20000 cells/μL) and dissociated neurospheres (100.000 cells/μL) were injected in the striatum of anesthetized mice using a 27-G Hamilton syringe. Injection coordinates for lateral striatum were: bregma=0.74 mm, mediolateral=2.25 mm, dorsoventral=3.5 mm; for medial striatum: bregma=0.74 mm, mediolateral=1.4 mm, dorsoventral=2.8 mm. Mice were euthanized one month later after ganciclovir termination.
(§6) Morphological and Phenotypic Analysis of Injected Surviving Cells:
(§7) Anesthetized mice were fixed by intracardiac perfusion of 4% paraformaldehyde in phosphate-buffered saline. Immunohistochemical detection was performed on 10-μm thick free-floating cryostat sections using Alexa 488-, or 555-labeled secondary antibodies or the biotin-avidin-peroxidase complex method (Vector). The following primary antibodies were used: Nestin (rabbit polyclonal anti-human, from Chemicon, 1/400), β3-tubulin (mouse monoclonal from Sigma or rabbit polyclonal from Covance, 1/2000), Neuronal Nuclei-specific protein (NeuN, mouse monoclonal from Chemicon, 1/1000), Glial Fibrillary Acidic Protein (GFAP, rabbit polyclonal from Dako, 1/2000), Proliferating Cell Nuclear Antigen (PCNA, mouse monoclonal from Dako, 1/100), Tyrosin Hydroxylase (TH, rabbit polyclonal from millipore, 1/500), iba 1 (polyclonal rabbit from Wako, 1/500), HSV-TK (mouse monoclonal, Gentaur, 1/100), ki67 (monoclonal rabbit, Abcam, 1/100 or mouse, Chemicon, 1/100).

[6] = system: TK-NPC transplants; assay: Transplantation of 2-3 week NPC neurospheres into striatum and ganciclovir treatment; format: in vivo, mice
Protocol: as §3, with “Ganciclovir (or PBS control) treatment was given from day 4 to day 19 post-transplantation.” left out
as §4, §5, §6, §7
BrdU (100 mg/kg, Millipore) was injected intraperitoneally twice daily for 3 consecutive days. Mice were sacrificed 5 days later and perfused, through the heart, with PBS and 4% paraformaldehyde in PBS. […]

[7] = system: HEK cells transfected with UL97 under the UBI promoter; assay: Cell proliferation/viability assay, high copy number plasmid, UL97; format: cell-based
Protocol: (§8) In further experiments, cell proliferation assay was performed using different suicide gene constructs in combination with various drugs, such as acyclovir, ganciclovir, or pencilovir. In the first assay, a kinase from human cytomegalovirus (CMV), UL97, was used as a novel suicide gene. The HEK cells were transfected with a high copy number of the respective plasmids.

[8] = system: HEK cells transfected with HSV-TK plasmid; assay: Cell proliferation/viability assay, high copy number plasmid, HSV-TK; format: cell-based
Protocol: as §8

[9] = system: HSV-TK-transduced cells; assay: Cell proliferation assay, low copy number, HSV-TK; format: cell-based
Protocol: (§9) In another experiment, the cells were transduced with a low copy number of the plasmids and, thus, differences between the different nucleoside analogs could be observed. […] Ganciclovir at high concentrations is also toxic to non-transduced cells.
(§10) Finally, the cell proliferation assay was also performed with the SR39 or HSV-TK-transduced cells treated with penciclovir. […] Thus, penciclovir may be used as the prodrug with the suicide gene construct, such as HSV-TK, SR39, or UL97.

[10] = system: SR39-transduced cells; assay: Cell proliferation assay, low copy number, SR39; format: cell-based
Protocol: as §9, §10

[11] = system: non-transduced cells; assay: Cell proliferation assay, non-transduced cells; format: cell-based
Protocol: as §9, §10

Nc1nc(O)c2ncn(COC(CO)CO)c2n1 [ganciclovir, Ganciclovir]
time in which TK PSCs were killed ([1]; 40 μM): ≤ 4 days
sensitivity of TK PSCs to ganciclovir exposure ([1]; 96h exposure): highly sensitive
ganciclovir concentration at which loss of cells was almost complete ([1]; TK PSCs, 96h exposure): 10 µM
ganciclovir concentration at which loss of cells was observed ([1]; TK PSCs, 96h exposure): 2.5 µM
effect on regular (control) PSCs [2]: resistant; also recorded: no ganciclovir toxicity is observed
effect on control neurons [3]: not affected
time to complete killing of TK-NPCs ([4]; TK-NPCs after 1 week of neurosphere differentiation): 8 days
killing of TK-NPCs ([4]; TK-NPCs after 2 weeks of neurosphere differentiation): not killed
teratoma formation, early ganciclovir treatment ([5]; 15 days ganciclovir starting 4 days post-transplantation, daily intra-peritoneal injection): no observed teratomas; also recorded: absence of teratoma formation and cell proliferation
development of large tumors (graft surface), early ganciclovir treatment ([5]; PSC transplanted, early treatment): completely prevented
tumor size (graft surface), late ganciclovir treatment ([5]; PSC transplanted, late treatment): did not have any effect
human cells (HCM) remaining in graft, early ganciclovir treatment ([5]; day 4 to 19 post-transplantation, analysed one month after end of treatment): hardly any human cells left; also recorded: barely detectable
teratoma formation, late ganciclovir treatment ([5]; ganciclovir days 30-45 post-transplantation, sacrifice 30 days after end of treatment): teratoma formation in both; also recorded: no difference
size of NPC transplants (graft surface) ([6]; NPC derived from 2-3 weeks old neurospheres): not affected
PCNA / Ki67 staining pattern of transplants ([6]; NPC transplants): did not alter this pattern
neural markers of transplanted cells (beta 3 tubulin, TH, nestin) ([6]; immunofluorescence 7 weeks after transplantation): None of these markers were affected
graft development, PBS versus ganciclovir ([6]; treated on days 7-22 following transplantation, sacrifice 4 weeks after end of treatment): No difference was observed
sensitivity of UL97-transfected HEK cells [7]: showed sensitivity
sensitivity of HSV-TK-transfected HEK cells [8]: sensitivity
concentration needed to kill HSV-TK-transduced cells [9]: relatively low concentration
concentration needed to kill SR39-transduced cells [10]: relatively low concentration
toxicity to non-transduced cells ([11]; at high concentrations): toxic

Nc1nc2c(ncn2COCCO)c(=O)[nH]1 [acyclovir, Acyclovir]
concentration needed to kill HSV-TK-transduced cells [9]: very high concentrations
concentration needed to kill SR39-transduced cells [10]: very high concentrations

Nc1nc2c(ncn2CCC(CO)CO)c(=O)[nH]1 [penciclovir, Penciclovir]
concentration needed to kill HSV-TK-transduced cells [9]: relatively low concentrations
concentration needed to kill SR39-transduced cells [10]: relatively low concentrations
toxicity in untransduced cells [11]: did not show any toxicity
